Data: paper PMC12046209, “Structure, Oligomerization, and Thermal Stability of a Recently Discovered Old Yellow Enzyme” (Proteins, 2025)

Molecular target: T1, FOYE (Old Yellow Enzyme from Ferrovum sp. JA12) (Ferrovum sp., UniProt Z9U1E9MGE1)
T1 construct: pET-28a(+), N-terminal 6xHis tag with thrombin site (removal not described; two tag residues visible in crystal); E. coli BL21(DE3) Star pLysS; homotetramer
T1 sequence (Z9U1E9MGE1 20-373): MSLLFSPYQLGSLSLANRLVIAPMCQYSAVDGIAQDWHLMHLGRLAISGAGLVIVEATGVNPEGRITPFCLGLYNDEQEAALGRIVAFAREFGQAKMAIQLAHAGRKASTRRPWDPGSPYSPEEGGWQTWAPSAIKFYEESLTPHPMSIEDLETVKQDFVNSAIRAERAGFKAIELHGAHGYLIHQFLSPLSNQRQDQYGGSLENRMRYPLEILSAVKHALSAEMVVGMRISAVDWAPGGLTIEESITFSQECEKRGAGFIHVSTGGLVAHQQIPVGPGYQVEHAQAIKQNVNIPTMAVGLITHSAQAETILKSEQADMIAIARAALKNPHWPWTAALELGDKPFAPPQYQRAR
Experiment: X-ray crystal structure
Assay type: binding
Settings: co-purified cofactor, present in all four protomers; crystals from Morpheus II condition E4, 20°C

Structure (SMILES): Cc1cc2nc3c(=O)[nH]c(=O)nc-3n(C[C@H](O)[C@H](O)[C@H](O)COP(=O)(O)O)c2cc1C [FMN]
- X-ray crystal structure: The electron density for the FMN is clearly visible in all the protomers
